Measured values taken from US9340590B2 (priority 2011, dated 2016).
Like-named read-outs stand apart in the source and are kept apart here. Positions of bridges follow the written chain, without caps; N, C: chain ends. Non-standard residues stand in square brackets, D forms with d. Residues, ends and D or L forms follow the SMILES beside them. No end group written: not given here. Abu = CC[C@H](N)C(=O)O

Key:
hNav1.7 = hNav1.7 (Homo sapiens, UniProt Q15858); assay: cell-based; type: cell-based
hNav1.3 = hNav1.3 (Homo sapiens, UniProt Q9NY46); assay: cell-based; conditions: for IC50: IonWorks Quattro, read-out: IWQ Use Nav1.3
Sequence of hNav1.3 (Q9NY46 whole entry, looked up): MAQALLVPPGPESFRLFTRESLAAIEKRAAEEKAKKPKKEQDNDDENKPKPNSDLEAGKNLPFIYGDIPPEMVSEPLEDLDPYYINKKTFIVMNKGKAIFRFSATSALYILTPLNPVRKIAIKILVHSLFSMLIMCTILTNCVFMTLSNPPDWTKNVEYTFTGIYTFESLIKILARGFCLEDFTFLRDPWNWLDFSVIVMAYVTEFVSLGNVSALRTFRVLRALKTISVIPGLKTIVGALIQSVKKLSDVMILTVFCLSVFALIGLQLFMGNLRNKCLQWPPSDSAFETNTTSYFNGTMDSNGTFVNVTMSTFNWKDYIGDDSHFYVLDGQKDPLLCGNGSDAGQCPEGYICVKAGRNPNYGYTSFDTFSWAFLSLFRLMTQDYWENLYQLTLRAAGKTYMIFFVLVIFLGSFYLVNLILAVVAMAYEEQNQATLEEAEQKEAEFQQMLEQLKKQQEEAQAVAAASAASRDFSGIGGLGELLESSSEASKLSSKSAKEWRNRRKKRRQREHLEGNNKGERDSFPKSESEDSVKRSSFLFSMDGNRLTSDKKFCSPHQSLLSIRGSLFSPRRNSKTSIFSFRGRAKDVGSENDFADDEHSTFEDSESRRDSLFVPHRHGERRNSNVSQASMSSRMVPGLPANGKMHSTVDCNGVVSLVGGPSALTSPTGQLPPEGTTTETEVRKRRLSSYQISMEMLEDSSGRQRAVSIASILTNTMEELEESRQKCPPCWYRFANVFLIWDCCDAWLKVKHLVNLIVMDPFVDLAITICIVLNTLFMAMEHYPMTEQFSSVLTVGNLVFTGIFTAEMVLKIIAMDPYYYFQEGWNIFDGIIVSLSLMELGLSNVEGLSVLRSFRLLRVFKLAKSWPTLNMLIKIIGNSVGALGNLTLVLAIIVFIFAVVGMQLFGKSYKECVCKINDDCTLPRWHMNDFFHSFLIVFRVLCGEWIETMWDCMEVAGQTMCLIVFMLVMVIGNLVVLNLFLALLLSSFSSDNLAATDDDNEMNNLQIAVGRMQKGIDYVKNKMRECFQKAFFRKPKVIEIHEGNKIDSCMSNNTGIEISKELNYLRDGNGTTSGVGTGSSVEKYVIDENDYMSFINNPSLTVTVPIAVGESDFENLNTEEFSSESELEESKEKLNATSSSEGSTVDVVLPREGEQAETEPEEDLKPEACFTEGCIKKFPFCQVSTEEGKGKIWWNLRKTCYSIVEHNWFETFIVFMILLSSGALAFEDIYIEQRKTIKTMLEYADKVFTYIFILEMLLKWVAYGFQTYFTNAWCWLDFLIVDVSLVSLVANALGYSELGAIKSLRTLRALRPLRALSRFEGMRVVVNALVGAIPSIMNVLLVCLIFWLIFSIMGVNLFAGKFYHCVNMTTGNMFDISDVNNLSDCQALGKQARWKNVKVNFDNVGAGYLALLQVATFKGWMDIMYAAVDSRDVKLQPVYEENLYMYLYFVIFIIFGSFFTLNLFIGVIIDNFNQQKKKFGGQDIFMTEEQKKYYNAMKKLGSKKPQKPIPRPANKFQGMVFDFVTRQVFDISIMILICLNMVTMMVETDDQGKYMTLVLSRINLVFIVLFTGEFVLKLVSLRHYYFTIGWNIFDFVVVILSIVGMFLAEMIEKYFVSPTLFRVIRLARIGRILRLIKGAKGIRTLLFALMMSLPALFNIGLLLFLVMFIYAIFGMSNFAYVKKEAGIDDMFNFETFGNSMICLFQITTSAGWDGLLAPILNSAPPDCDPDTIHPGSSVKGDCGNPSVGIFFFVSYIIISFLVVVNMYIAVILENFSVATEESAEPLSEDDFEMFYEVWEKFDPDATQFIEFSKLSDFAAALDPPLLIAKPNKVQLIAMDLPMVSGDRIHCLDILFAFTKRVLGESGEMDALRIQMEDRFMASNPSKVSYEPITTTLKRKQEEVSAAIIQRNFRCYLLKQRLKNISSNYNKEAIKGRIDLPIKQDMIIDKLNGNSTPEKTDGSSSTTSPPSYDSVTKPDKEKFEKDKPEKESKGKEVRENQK

Sequence of hNav1.7 (Q15858 whole entry, looked up): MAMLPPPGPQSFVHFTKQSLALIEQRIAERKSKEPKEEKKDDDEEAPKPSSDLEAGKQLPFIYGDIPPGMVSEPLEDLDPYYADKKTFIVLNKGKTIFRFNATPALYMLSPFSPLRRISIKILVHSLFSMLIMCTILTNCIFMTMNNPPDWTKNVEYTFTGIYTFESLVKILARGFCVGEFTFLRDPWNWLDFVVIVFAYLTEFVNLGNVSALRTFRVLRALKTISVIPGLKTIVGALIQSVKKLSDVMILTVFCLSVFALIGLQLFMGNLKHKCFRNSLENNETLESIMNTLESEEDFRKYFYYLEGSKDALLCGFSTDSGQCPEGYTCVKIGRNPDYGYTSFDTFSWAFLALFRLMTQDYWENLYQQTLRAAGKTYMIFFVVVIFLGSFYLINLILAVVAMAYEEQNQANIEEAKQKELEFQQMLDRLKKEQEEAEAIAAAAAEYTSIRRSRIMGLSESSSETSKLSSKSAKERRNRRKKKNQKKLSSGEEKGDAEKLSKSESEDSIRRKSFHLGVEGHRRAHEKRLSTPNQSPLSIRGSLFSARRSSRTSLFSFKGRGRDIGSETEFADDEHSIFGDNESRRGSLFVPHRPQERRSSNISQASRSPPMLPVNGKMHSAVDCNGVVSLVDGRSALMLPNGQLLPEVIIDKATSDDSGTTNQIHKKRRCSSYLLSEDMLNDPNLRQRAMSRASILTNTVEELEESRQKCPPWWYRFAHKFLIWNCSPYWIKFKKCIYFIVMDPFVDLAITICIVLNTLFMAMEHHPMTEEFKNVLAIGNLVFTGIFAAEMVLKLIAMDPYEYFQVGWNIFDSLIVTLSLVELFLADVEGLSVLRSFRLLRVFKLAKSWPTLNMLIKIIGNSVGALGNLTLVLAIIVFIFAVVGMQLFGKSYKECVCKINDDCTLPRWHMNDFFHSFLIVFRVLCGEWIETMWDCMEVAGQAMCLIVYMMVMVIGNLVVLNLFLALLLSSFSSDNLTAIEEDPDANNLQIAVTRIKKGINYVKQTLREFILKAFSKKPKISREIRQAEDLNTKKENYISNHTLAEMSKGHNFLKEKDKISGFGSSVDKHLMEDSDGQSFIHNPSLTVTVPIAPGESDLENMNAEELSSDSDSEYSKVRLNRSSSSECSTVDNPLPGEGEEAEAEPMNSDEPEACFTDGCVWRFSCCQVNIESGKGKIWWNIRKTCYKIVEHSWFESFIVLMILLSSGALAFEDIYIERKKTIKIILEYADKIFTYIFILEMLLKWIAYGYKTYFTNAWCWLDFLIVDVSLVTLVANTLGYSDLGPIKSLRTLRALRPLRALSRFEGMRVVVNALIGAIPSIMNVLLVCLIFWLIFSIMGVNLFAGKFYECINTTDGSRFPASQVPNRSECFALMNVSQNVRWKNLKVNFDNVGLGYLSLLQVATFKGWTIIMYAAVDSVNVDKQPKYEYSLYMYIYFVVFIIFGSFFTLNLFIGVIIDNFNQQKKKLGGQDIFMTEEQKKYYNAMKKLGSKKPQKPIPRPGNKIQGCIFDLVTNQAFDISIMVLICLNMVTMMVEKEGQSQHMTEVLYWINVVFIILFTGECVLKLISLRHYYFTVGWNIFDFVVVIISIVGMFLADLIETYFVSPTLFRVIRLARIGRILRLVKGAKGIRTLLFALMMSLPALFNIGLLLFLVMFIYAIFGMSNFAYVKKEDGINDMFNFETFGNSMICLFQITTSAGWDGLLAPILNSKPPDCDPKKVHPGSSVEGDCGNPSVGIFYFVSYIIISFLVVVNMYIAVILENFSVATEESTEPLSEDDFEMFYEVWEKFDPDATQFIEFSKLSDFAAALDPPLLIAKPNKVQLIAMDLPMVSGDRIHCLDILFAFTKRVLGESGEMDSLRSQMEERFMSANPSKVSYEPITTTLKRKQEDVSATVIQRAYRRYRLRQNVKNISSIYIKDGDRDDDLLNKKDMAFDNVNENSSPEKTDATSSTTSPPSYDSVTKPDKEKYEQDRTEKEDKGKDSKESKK

CC[C@H](C)[C@@H]1NC(=O)[C@@H]2CSSC[C@@H]3NC(=O)[C@H](C(C)C)NC(=O)[C@H](CC(C)C)NC(=O)[C@H](CC(N)=O)NC(=O)[C@@H]4CCCN4C(=O)[C@H](CCCNC(=N)N)NC(=O)[C@H](CSSC[C@H](NC(=O)[C@@H](N)CC(=O)O)C(=O)N[C@@H](CC(C)C)C(=O)NCC(=O)N[C@@H](Cc4ccccc4)C(=O)N[C@@H](CCSC)C(=O)N[C@@H](CCCNC(=N)N)C(=O)N[C@@H](CCCCN)C(=O)N2)NC(=O)[C@H](CSSC[C@@H](C(=O)N[C@@H](CCCCN)C(=O)N[C@@H](Cc2ccc(O)cc2)C(=O)N[C@H](C(=O)N[C@@H](Cc2ccccc2)C(N)=O)C(C)C)NC(=O)[C@H](Cc2c[nH]c4ccccc24)NC(=O)[C@H](CCC(N)=O)NC(=O)[C@H](Cc2cnc[nH]2)NC(=O)[C@H]([C@@H](C)O)NC(=O)[C@H](CCCNC(=N)N)NC(=O)[C@H](CO)NC3=O)NC(=O)[C@H](CCCCN)NC(=O)[C@H](CC(=O)O)NC(=O)[C@H](CC(N)=O)NC(=O)[C@H](CC(=O)O)NC(=O)[C@@H]2CCCN2C1=O [SEQ ID NO: 763, [Gln28]GpTx-1] (H-DCLGFMRKCIPDNDKCCRPNLVCSRTHQWCKYVF-NH2; disulfide 2-17, 9-23, 16-30)
IC50 (hNav1.7): 190 nM
IC50 (hNav1.3; use-dependent block, hNav1.3): 270 nM

CC[C@H](C)[C@@H]1NC(=O)[C@@H]2CSSC[C@@H]3NC(=O)[C@H](C(C)C)NC(=O)[C@H](CC(C)C)NC(=O)[C@H](CC(N)=O)NC(=O)[C@@H]4CCCN4C(=O)[C@H](CCCNC(=N)N)NC(=O)[C@H](CSSC[C@H](NC(=O)[C@@H](N)CC(=O)O)C(=O)N[C@@H](CC(C)C)C(=O)NCC(=O)N[C@@H](Cc4ccccc4)C(=O)N[C@@H](CCSC)C(=O)N[C@@H](CCCNC(=N)N)C(=O)N[C@@H](CCCCN)C(=O)N2)NC(=O)[C@H](CSSC[C@@H](C(=O)N[C@@H](CCCCN)C(=O)N[C@@H](CCC(=O)O)C(=O)N[C@H](C(=O)N[C@@H](Cc2ccccc2)C(N)=O)C(C)C)NC(=O)[C@H](Cc2c[nH]c4ccccc24)NC(=O)[C@H](CCCCN)NC(=O)[C@H](Cc2cnc[nH]2)NC(=O)[C@H]([C@@H](C)O)NC(=O)[C@H](CCCNC(=N)N)NC(=O)[C@H](CO)NC3=O)NC(=O)[C@H](CCCCN)NC(=O)[C@H](CC(=O)O)NC(=O)[C@H](CC(N)=O)NC(=O)[C@H](CC(=O)O)NC(=O)[C@@H]2CCCN2C1=O [compound 32] (H-DCLGFMRKCIPDNDKCCRPNLVCSRTHKWCKEVF-NH2; disulfide 2-17, 9-23, 16-30)
IC50 (hNav1.7; Table 25, IonWorks Quattro, use, […], read-out: IWQ Use Nav1.7): 13900 nM
IC50 (hNav1.3; Table 25, use, […]): 9140 nM

CC[C@H](C)[C@@H]1NC(=O)[C@@H]2CSSC[C@@H]3NC(=O)[C@H](C(C)C)NC(=O)[C@H](CC(C)C)NC(=O)[C@H](CC(N)=O)NC(=O)[C@@H]4CCCN4C(=O)[C@H](CCCNC(=N)N)NC(=O)[C@H](CSSC[C@H](NC(=O)[C@@H](N)CC(=O)O)C(=O)N[C@@H](CC(C)C)C(=O)NCC(=O)N[C@@H](Cc4ccccc4)C(=O)N[C@@H](CCSC)C(=O)N[C@@H](CCCNC(=N)N)C(=O)N[C@@H](CCCCN)C(=O)N2)NC(=O)[C@H](CSSC[C@@H](C(=O)N[C@@H](CCCCN)C(=O)N[C@@H](Cc2ccc(O)cc2)C(=O)N[C@H](C(=O)N[C@@H](Cc2ccccc2)C(N)=O)C(C)C)NC(=O)[C@H](CCCCN)NC(=O)[C@H](CCCCN)NC(=O)[C@H](Cc2c[nH]cn2)NC(=O)[C@H]([C@@H](C)O)NC(=O)[C@H](CCCNC(=N)N)NC(=O)[C@H](CO)NC3=O)NC(=O)[C@H](CCCCN)NC(=O)[C@H](CC(=O)O)NC(=O)[C@H](CC(N)=O)NC(=O)[C@H](CC(=O)O)NC(=O)[C@@H]2CCCN2C1=O [compound 56] (H-DCLGFMRKCIPDNDKCCRPNLVCSRTHKKCKYVF-NH2; disulfide 2-17, 9-23, 16-30)
Nav1.4/Nav1.7 (hNav1.7): 1.4
Nav1.7/Nav1.3 (hNav1.7): 0.8
Nav1.4/Nav1.3 (hNav1.3): 1.1

CC[C@H](C)[C@@H]1NC(=O)[C@@H]2CSSC[C@@H]3NC(=O)[C@H](C(C)C)NC(=O)[C@H](CC(C)C)NC(=O)[C@H](CC(N)=O)NC(=O)[C@@H]4CCCN4C(=O)[C@H](CCCNC(=N)N)NC(=O)[C@H](CSSC[C@H](NC(=O)[C@@H](N)CC(=O)O)C(=O)N[C@@H](CC(C)C)C(=O)NCC(=O)N[C@@H](Cc4ccccc4)C(=O)N[C@@H](CCSC)C(=O)N[C@@H](CCCNC(=N)N)C(=O)N[C@@H](CCCCN)C(=O)N2)NC(=O)[C@H](CSSC[C@@H](C(=O)N[C@@H](CCCCN)C(=O)N[C@@H](Cc2ccc(O)cc2)C(=O)N[C@H](C(=O)N[C@@H](Cc2ccccc2)C(N)=O)C(C)C)NC(=O)[C@H](Cc2c[nH]c4ccccc24)NC(=O)[C@H](CCCCN)NC(=O)[C@H](Cc2c[nH]c4ccccc24)NC(=O)[C@H]([C@@H](C)O)NC(=O)[C@H](CCCNC(=N)N)NC(=O)[C@H](CO)NC3=O)NC(=O)[C@H](CCCCN)NC(=O)[C@H](CC(=O)O)NC(=O)[C@H](CC(N)=O)NC(=O)[C@H](CC(=O)O)NC(=O)[C@@H]2CCCN2C1=O [compound 84] (H-DCLGFMRKCIPDNDKCCRPNLVCSRTWKWCKYVF-NH2; disulfide 2-17, 9-23, 16-30)
IC50 (hNav1.7; Table 23, IonWorks Quattro, use, […], read-out: IWQ Use Nav1.7): 320 nM
IC50 (hNav1.3; Table 23, use, […]): 590 nM

CC[C@H](C)[C@@H]1NC(=O)[C@@H]2CSSC[C@@H]3NC(=O)[C@H](C(C)C)NC(=O)[C@H](CC(C)C)NC(=O)[C@H](CC(N)=O)NC(=O)[C@@H]4CCCN4C(=O)[C@H](CCCNC(=N)N)NC(=O)[C@H](CSSC[C@H](NC(=O)[C@@H](N)CC(=O)O)C(=O)N[C@@H](CC(C)C)C(=O)NCC(=O)N[C@@H](Cc4ccccc4)C(=O)N[C@@H](CCSC)C(=O)N[C@@H](CCCNC(=N)N)C(=O)N[C@@H](CCCCN)C(=O)N2)NC(=O)[C@H](CSSC[C@@H](C(=O)N[C@@H](CCCCN)C(=O)N[C@@H](Cc2ccc(O)cc2)C(=O)N[C@H](C(=O)N[C@@H](Cc2ccccc2)C(N)=O)C(C)C)NC(=O)[C@H](Cc2c[nH]c4ccccc24)NC(=O)[C@H](CCCCN)NC(=O)[C@H](Cc2cnc[nH]2)NC(=O)[C@H](Cc2cnc[nH]2)NC(=O)[C@H](CCCNC(=N)N)NC(=O)[C@H](CO)NC3=O)NC(=O)[C@H](CCCCN)NC(=O)[C@H](CC(=O)O)NC(=O)[C@H](CC(N)=O)NC(=O)[C@H](CC(=O)O)NC(=O)[C@@H]2CCCN2C1=O [compound 337] (H-DCLGFMRKCIPDNDKCCRPNLVCSRHHKWCKYVF-NH2; disulfide 2-17, 9-23, 16-30)
IC50 (hNav1.7; Table 22, IonWorks Quattro, use, […], read-out: IWQ Use Nav1.7): 100 nM
IC50 (hNav1.3; Table 22, use, […]): 80 nM

CC[C@H](C)[C@@H]1NC(=O)[C@@H]2CSSC[C@@H]3NC(=O)[C@H](C(C)C)NC(=O)[C@H](CC(C)C)NC(=O)[C@H](CC(N)=O)NC(=O)[C@@H]4CCCN4C(=O)[C@H](CCCNC(=N)N)NC(=O)[C@H](CSSC[C@H](NC(=O)[C@@H](N)CC(=O)O)C(=O)N[C@@H](CC(C)C)C(=O)NCC(=O)NC(C)(C)C(=O)N[C@@H](CC(C)C)C(=O)N[C@@H](CCCNC(=N)N)C(=O)N[C@@H](CCCCN)C(=O)N2)NC(=O)[C@H](CSSC[C@@H](C(=O)N[C@@H](CCCCN)C(=O)N[C@@H](Cc2ccc(O)cc2)C(=O)N[C@H](C(=O)N[C@@H](Cc2ccccc2)C(N)=O)C(C)C)NC(=O)[C@H](Cc2c[nH]c4ccccc24)NC(=O)[C@H](CCCCN)NC(=O)[C@H](Cc2c[nH]cn2)NC(=O)[C@H]([C@@H](C)O)NC(=O)[C@H](CCCNC(=N)N)NC(=O)[C@H](CO)NC3=O)NC(=O)[C@H](CCCCN)NC(=O)[C@H](CC(=O)O)NC(=O)[C@H](CC(N)=O)NC(=O)[C@H](CC(=O)O)NC(=O)[C@@H]2CCCN2C1=O [compound 635]
IC50 (hNav1.7; IonWorks Quattro, use-dependent protocol, hNav1.7, read-out: IWQ Use Nav1.7): 230 nM
IC50 (hNav1.3; use-dependent protocol, hNav1.3): 380 nM

CC[C@H](C)[C@@H]1NC(=O)[C@@H]2CSSC[C@@H]3NC(=O)[C@H](C(C)C)NC(=O)[C@H](CC(C)C)NC(=O)[C@H](CC(N)=O)NC(=O)[C@@H]4CCCN4C(=O)[C@H](CCCNC(=N)N)NC(=O)[C@H](CSSC[C@H](NC(=O)[C@@H](N)CC(=O)O)C(=O)N[C@@H](CC(C)C)C(=O)NCC(=O)N[C@@H](Cc4ccc(Cl)c(Cl)c4)C(=O)N[C@@H](CCSC)C(=O)N[C@@H](CCCNC(=N)N)C(=O)N[C@@H](CCCCN)C(=O)N2)NC(=O)[C@H](CSSC[C@@H](C(=O)N[C@@H](CCCCN)C(=O)N[C@@H](Cc2ccc(O)cc2)C(=O)N[C@H](C(=O)N[C@@H](Cc2ccccc2)C(N)=O)C(C)C)NC(=O)[C@H](Cc2c[nH]c4ccccc24)NC(=O)[C@H](CCCCN)NC(=O)[C@H](Cc2c[nH]cn2)NC(=O)[C@H]([C@@H](C)O)NC(=O)[C@H](CCCNC(=N)N)NC(=O)[C@H](CO)NC3=O)NC(=O)[C@H](CCCCN)NC(=O)[C@H](CC(=O)O)NC(=O)[C@H](CC(N)=O)NC(=O)[C@H](CC(=O)O)NC(=O)[C@@H]2CCCN2C1=O [compound 653]
Nav1.4/Nav1.7 (hNav1.7; ratio of IWQ Use values, Nav1.4 over Nav1.7): 8.8
Nav1.4/Nav1.3 (hNav1.3; ratio of IWQ Use values, Nav1.4 over Nav1.3): 17.7
Nav1.7/Nav1.3 (hNav1.3; ratio of IWQ Use values, Nav1.7 over Nav1.3): 2.0

[2-Abu-2,17]GpTx-1 (D[Abu]LGFMRKCIPDNDKC[Abu]RPNLVCSRTHKWCKYVF-NH2; ends and bridges not checked)
activity against NaV1.7 relative to GpTx-1, in words (hNav1.7): retains significant activity

[Glu18;desAsn20]GpTx-1 (DCLGFMRKCIPDNDKCCEGLVCSRTHKWCKYVF-NH2; ends and bridges not checked)
activity against NaV1.7 relative to GpTx-1, in words (hNav1.7): without substantial impact on the activity

[Ser-Ser19]GpTx-1 (DCLGFMRKCIPDNDKCCRSSNLVCSRTHKWCKYVF-NH2; ends and bridges not checked)
activity against NaV1.7 relative to GpTx-1, in words (hNav1.7): without substantial impact on the activity
